ChEMBL document CHEMBL1121981, “Synthesis and biological evaluation of a metazocine-containing enkephalinamide. Evidence for nonidentical roles of the tyramine moiety in opiates and opioid peptides” (J Med Chem, 1982)
Active and inactive are the calls of the source. The calls are words filed in the database; no cut-off is given here.

Legend:
Format in all cases: functional, tissue-based
[1] = biological target: Mu-type opioid receptor (Cavia porcellus) (UniProt P97266); assay: Mu opioid receptor agonist activity was determined by inhibition of electrically stimulated myenteric plexus in guinea pig ileum
Sequence of Mu-type opioid receptor (Cavia porcellus) (P97266 whole entry): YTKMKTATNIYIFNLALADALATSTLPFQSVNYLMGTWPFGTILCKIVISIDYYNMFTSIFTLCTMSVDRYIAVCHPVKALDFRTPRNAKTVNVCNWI

[2] = biological target: Mu-type opioid receptor (Cavia porcellus) (UniProt P97266); assay: Mu opioid receptor agonist activity was determined by inhibition of electrically stimulated myenteric plexus in guinea pig ileum; Inactive
[3] = biological target: Mu-type opioid receptor (Cavia porcellus, UniProt P97266); assay: Mu opioid receptor agonist activity as inhibition of electrically stimulated mysenteric plexus in guinea pig ileum
Sequence of Mu-type opioid receptor (P97266 whole entry): as above

[4] = biological target: Mu-type opioid receptor (Cavia porcellus) (UniProt P97266); assay: Mu opioid receptor agonist activity was determined by inhibition of electrically stimulated myenteric plexus in guinea pig ileum; Inactive, weak antagonism with agonist morphine PA2 of <6; details: filed as antagonist

CC1C2(C)CCN(C)C1(C(N)=O)Cc1ccc(O)cc12 (single isomer, unassigned; (-)) [listing 1 of 2 here]
Relative potency [1]: 0.02

CSCC[C@@H](NC(=O)[C@H](Cc1ccccc1)NC(=O)CNC(=O)CNC(=O)C1CC2(C)c3cc(O)ccc3CC(C2C)N1C)C(N)=O (single isomer, unassigned; (+))
Relative potency [2]: inactive

CC1C2(C)CCN(C)C1(C#N)Cc1ccc(O)cc12 (racemic)
Relative potency [2]: inactive

CC1C2(C)CCN(C)C1(C(N)=O)Cc1ccc(O)cc12 (configuration not stated)
Relative potency [2]: inactive

CSCC[C@H](NC(=O)[C@H](Cc1ccccc1)NC(=O)CNC(=O)[C@@H](C)NC(=O)[C@@H](N)Cc1ccc(O)cc1)C(N)=O
Relative potency [1]: 329 | IC50 [3]: 0.0174 µM

CC1C2Cc3ccc(O)cc3C1(C)CC(C(N)=O)N2C (single isomer, unassigned; (+))
Relative potency [2]: inactive

CSCC[C@@H](NC(=O)[C@H](Cc1ccccc1)NC(=O)CNC(=O)CNC(=O)C12Cc3ccc(O)cc3C(C)(CCN1C)C2C)C(N)=O (single isomer, unassigned; (+))
Relative potency [2]: inactive

CC1C2Cc3ccc(O)cc3C1(C)CC(C(N)=O)N2C (single isomer, unassigned; (-)) [listing 1 of 2 here]
IC50 [3]: 6.09 µM

CSCC[C@H](NC(=O)[C@H](Cc1ccccc1)NC(=O)CNC(=O)CNC(=O)C1CC2(C)c3cc(O)ccc3CC(C2C)N1C)C(N)=O (some centres not stated)
IC50 [3]: 7.97 µM

CC1C2Cc3ccc(O)cc3C1(C)CC(C#N)N2C (single isomer, unassigned; form 1)
IC50 [3]: 0.51 µM

CC1C2Cc3ccc(O)cc3C1(C)CC(C#N)N2C (single isomer, unassigned; form 2)
IC50 [3]: 0.51 µM

CSCC[C@@H](NC(=O)[C@H](Cc1ccccc1)NC(=O)CNC(=O)CNC(=O)C1CC2(C)c3cc(O)ccc3CC(C2C)N1C)C(N)=O (some centres not stated)
Relative potency [1]: 0.007

CC1C2Cc3ccc(O)cc3C1(C)CC(C(N)=O)N2C (single isomer, unassigned; (-)) [listing 2 of 2 here]
Relative potency [1]: 0.009

C[C@H]1[C@@H]2Cc3ccc(O)cc3[C@]1(C)CCN2C [METAZOCINE]
IC50 [3]: 0.094 µM

CSCC[C@@H](NC(=O)[C@H](Cc1ccccc1)NC(=O)CNC(=O)CNC(=O)C12Cc3ccc(O)cc3C(C)(CCN1C)C2C)C(N)=O (single isomer, unassigned; (-))
Relative potency [4]: Partial antagonist

CC1C2(C)CCN(C)C1(C(N)=O)Cc1ccc(O)cc12 (single isomer, unassigned; (-)) [listing 2 of 2 here]
IC50 [3]: 2.82 µM
